Experimental findings from patent US7932086B2, “Commercially viable process for in vitro mass culture of Jatropha curcas” (Reliance Life Sciences Pvt. Ltd., priority 2007, dated 2011) are described below.

The test deals with Jatropha curcas elongated shoots. Put plainly: in vitro rooting of elongated shoots. The class given is cell-based. The following applies: 4.9 μM in half strength Murashige & Skoog Basal Medium.

As for `O=C(O)CCCc1c[nH]c2ccccc12` [IBA, Indole-3-butyric acid], the root formation entry was “well-formed roots”.
